# Assays:
# Format in all cases: cell-based
# [1] = system: hMPV strain CAN99-81 (gr. A1); assay: hMPV A1 EC50 in LLC-MK2 cells; conditions: read-out: hMPVA1 LLC-MK2 EC50
# Procedure: (§1) LLC-MK2 cells were seeded in 24-well plates at 90% confluence in MEM+10% FBS. Plates were washed with PBS and 500 μL of hMPV (strains CAN99-81 (gr. A1), CAN97-83 (gr. A2), CAN97-82 (B1) or CAN98-75 (gr. B2), containing 40 PFU/mL with the different dilutions of the 4 compounds were added on the cells for 1 h 30 min at 37° C., 5% CO2. After the adsorption period, the medium was removed and cells were washed with PBS. An overlay of Opti-MEM 2×+methycellulose 1.6% (1:1) containing the same concentrations of compounds as in the adsorption period was added to the wells. A positive control consisting of ribavirin was also tested with concentrations ranging from 1 μM to 100 μM. The plates were incubated at 37° C., 5% CO2 for 3-5 days. After the incubation period, the cells were fixed with 7% formalin for 1 h at room temperature. hMPV titers were determined using a Mab specific for the F protein (clone hMPV24, ABD Serotec, Inc.) diluted 1/10 000 and a second anti-mouse IgG HRP antibody (GeneScriptCorp) diluted 1/2500. Finally, KPL True Blue was used to reveal infected cells.
# [2] = system: hMPV strain CAN97-82 (B1); assay: hMPV B1 EC50 in LLC-MK2 cells; conditions: read-out: hMPVB1 LLC-MK2 EC50
# Procedure: as §1
# [3] = system: hMPV strain CAN97-83 (gr. A2); assay: hMPV A2 EC50 in LLC-MK2 cells; conditions: read-out: hMPVA2 LLC-MK2 EC50
# Procedure: as §1
# [4] = system: hMPV strain CAN98-75 (gr. B2); assay: hMPV B2 EC50 in LLC-MK2 cells; conditions: read-out: hMPVB2 LLC-MK2 EC50
# Procedure: as §1
smiles,measurement,setting,value
"COC(=O)[C@H](C)N[P@](=O)(OC[C@@]1(C#N)O[C@@H](c2ccc3c(N)ncnn23)[C@H](OC(=O)C(C)C)[C@@H]1OC(=O)C(C)C)Oc1ccccc1 (single isomer, unassigned) [Example 140]",EC50,[1],160 nM
same,EC50,[2],210 nM
same,EC50,[3],190 nM
same,EC50,[4],230 nM
